{
  "source": "patent US20250346643A1",
  "about": "“TROPOMYOSIN KINASE RECEPTOR (TRK) LIGANDS AS THERAPEUTICS TO SUPPORT LIVER REGENERATION” (Vanderbilt University, priority 2024, published 2025)",
  "key": {"mTORC1": {"system": "mTORC1", "experiment": "Immunoblotting of HDOs for P-S6RP and P-P70S6K (mTORC1 activation)", "format": "cell-based, human", "method": "(§1) Human ductal organoids. The normal human liver tissue was obtained through the Cooperative Human Tissue Network (CHTN) at Vanderbilt University Medical Center. The liver was cut into very small pieces in liver digestion medium (Gibco, Waltham, MA; 17703-034). The cell suspension was filtered through a 100-μm cell strainer. The flow through was then centrifuged for 2 min at 100 g, 4° C., and the cell pellet resuspended in ice-cold DMEM (Gibco, Waltham, MA; 11885-084, supplemented by 5% FBS) and centrifuged for 2 min at 300 g. The cell pellet was gently resuspended in Matrigel® (Corning, Corning, NY; 356231) and a […] dome plated in a 24-well plate. The plate was incubated for 10-15 min at 37° C. After solidifying, complete HepatiCult™ Organoid Initiation Medium (OIM) (STEMCELL Technologies, Vancouver, Canada; 100-0384) was added. For passaging, the Matrigel dome was dissociated using TrypLE (Thermo Fisher Scientific, Waltham, MA; 12604013) and incubated at 37° C. for 5 mins. Organoids were washed by resuspending in advanced DMEM/F12 and consecutive resuspension of the organoid pellet. Organoids were resuspended at a 1:10 dilution in Matrigel® and cultured in complete HepatiCult™ Organoid Growth Medium (OGM) (STEMCELL Technologies, Vancouver, Canada; 100-0385) for organoid expansion. For hepatocytic differentiation of hepatic ductal organoids, culture medium was changed to complete HepatiCult™ Organoid Differentiation Medium (ODM) (STEMCELL Technologies, 100-0383) 4 days after passaging. Vehicle, NTF3, BDNF, HGF (20 ng/ml final concentration) or Taletrectinib (Fisher Scientific, Waltham, MA; 502030245, final concentration 10 nM) or torin2 (Fisher Scientific, Waltham, MA; s2817, final concentration 25 nM) were diluted in William's E (without L-glutamine) and added to organoids.\nImmunoblotting. HDOs and mpPHH were homogenized in RIPA buffer containing proteinase inhibitors (Roche, Basel, Switzerland; cOmplete™ Mini protease inhibitor, 2 tab/10 ml buffer) and 1×HALT phosphatase inhibitors (Thermo Fisher Scientific, Waltham, MA; catalog no. 78428). Lysates were sonicated and then centrifuged for 10 min at 18,800 g. Protein concentration of supernatants was determined by Direct Detect Spectrophotometer (MilliporeSigma, Burlington, MA). HDOs were treated with growth factors as described above. Lyophilized NTF3 was solubilized with sterile-filtered PBS supplemented with 0.1% BSA, aliquoted, and stored at −80° C. until use. […] HDOs and mpPHH were collected on ice in PBS and centrifuged for 10 s, and the cell pellet was homogenized in RIPA buffer containing inhibitors (Roche, Basel, Switzerland; cOmplete™ Mini protease inhibitor, 1×HALT phosphatase inhibitors, Thermo Fisher Scientific, Waltham, MA; catalog no. 78428). Cell lysates were sonicated and centrifuged for 10 min at 18,800 g. The protein concentration of supernatants was determined by a Direct Detect® spectrophotometer (MilliporeSigma, Burlington, MA). For immunoblot analysis, 10 to 50 μg of protein diluted in […] sample buffer (Invitrogen, Waltham, MA) were analyzed per SDS-polyacrylamide gel electrophoresis (NuPAGE™, Invitrogen, Waltham, MA) using Mops buffer or MES buffer (Invitrogen, Waltham, MA). […] Semi-quantitative band densitometry was performed using ImageJ software (version 1.53)."}, "[1]": {"system": "primary mouse hepatocytes", "experiment": "Cell proliferation assay (CellTiter-Glo) in primary mouse hepatocytes", "format": "cell-based", "method": "Primary hepatocyte isolation. Pdgfrb-GFP-negative or H-2Kd mice older than 4 months were anesthetized and cannulated via the portal vein. Livers were perfused with about 25 ml of pre-warmed Liver Perfusion Medium (Gibco, Waltham, MA; 17707-038) followed by about 50 ml Liver Digestion Medium (Gibco, Waltham, MA; 17703-034). Liver capsule was gently teased apart with tweezers and hepatocytes released. Cells were taken up in Hepatocyte Wash Buffer (Gibco, Waltham, MA; 17704-024) and filtered through 100 μm mesh. Cells were then centrifuged for 2 min at 100 g, 4° C. and cell pellet resuspended in ice cold 10 ml DMEM (Gibco, Waltham, MA; 11885-084)/5% FBS. 10 ml of ice cold 100% Percoll®/PBS (GE HealthCare, Chicago, IL; GE17-0891-01) was added for gradient purification and cells centrifuged for 10 min at 200 g, 4° C. Cell pellet was resuspended with 20 ml DMEM/5% FBS and centrifuged for 2 min at 100 g, 4° C. 1-2×10^3 hepatocytes were plated on collagen-coated 96-well plates in DMEM/5% FBS/Pen/Strep. Rat tail collagen I (Gibco, Waltham, MA; A1048301) was used for coating. Cell culture media was changed 3 hours after plating with either serum-free William's E media (Gibco, Waltham, MA) containing Pen/Strep (Gibco, Waltham, MA) or DMEM/5% FBS/Pen/Strep. NTF3 (STEMCELL technologies, Vancouver, Canada) was added 1 day after plating at a final concentration of 20 ng/ml and primary hepatocytes cultured for 3 days with NTF3 until analysis.\nCell proliferation assays. Primary mouse hepatocytes, HepG2 or AML 12 cells were grown in opaque-walled 96-well plates. NTF3 (final concentration 20 ng/ml) (STEMCELL Technologies, Vancouver, Canada; cat. 78074) and/or Loxo-195 (final concentration 5 nM) (Selleckchem, Houston, TX; S8636) were added into complete growth media without L-glutamine. Primary mouse hepatocytes were also grown in serum-free William's E media without supplements. Cells were analyzed by CellTiter-Glo® (Promega G7570, Madison, WI) which detects the number of viable cells on day 0 to day 5 by on detection systems GloMax® (Promega) or Bioteck Synergy H1 (Agilent, Santa Clara, CA). Mouse recombinant HGF (Abcam, Cambridge, UK; ab281797) was added to cell culture media at a final concentration 5 ng/ml. TRKB inhibitor ANA-12 (Selleckchem, Houston, TX; S7745) was diluted in DMSO (10 mM stock solution) and added to cell culture media at a final concentration of 10 nM.\nPrimary mouse hepatocyte isolation. Mice were anesthetized and cannulated via the portal vein. Livers were perfused with ˜25 ml of prewarmed liver perfusion medium (Gibco, Waltham, MA; 17707-038) followed by ˜50 ml of liver digestion medium (Gibco, Waltham, MA; 17703-034). The liver capsule was gently teased apart with tweezers, and hepatocytes were released. Cells were taken up in Hepatocyte Wash Buffer (Gibco, Waltham, MA; 17704-024) and filtered through a 100-μm mesh. Cells were then centrifuged for 2 min at 100 g, 4° C., and the cell pellet was resuspended in 10 ml of ice-cold DMEM (Gibco, Waltham, MA; 11885-084)/5% FBS. […] of ice-cold 100% Percoll®/PBS (GE HealthCare, Chicago, IL; GE17-0891-01) were added for gradient purification, and cells were centrifuged for 10 min at 200 g, 4° C. The cell pellet was resuspended with 20 ml of DMEM/5% FBS and centrifuged for 2 min at 100 g, 4° C. A total of 1×10^3 to 2×10^3 hepatocytes were plated on collagen-coated 96-well plates in DMEM/5% FBS/Pen/Strep. Rat tail collagen I (Gibco, Waltham, MA; A1048301) was used for coating. Cell culture media were changed 3 hours after plating with either serum-free William's E media (Gibco, Waltham, MA) containing Pen/Strep (Gibco, Waltham, MA) or DMEM/5% FBS/Pen/Strep. […]"}, "[2]": {"system": "hepatocytic differentiated human ductal organoids", "experiment": "EdU incorporation in hepatocytic differentiated human ductal organoids (HDO)", "format": "cell-based", "conditions": "co-incubation with taletrectinib 10 nM (FIG. 19C-D)", "method": "as §1\nEdU incorporation and imaging in HDO and mpPHH. A chamber slide was pre-chilled on ice and coated with Matrigel®. Chamber slide was then incubated for 3 min at 37° C. to solidify and organoids plated in 0.02% Matrigel®/complete media into coated chamber slides. Organoids were grown in complete organoid growth media (OGM) for approximately 4 days followed by incubation in organoid differentiation media (ODM) for another 4 days. Organoids were changed to William's E medium 1 day prior to experiment. Vehicle or NTF3, BDNF, HGF (20 ng/ml final concentration each) or Taletrectinib (Fisher Scientific, Waltham, MA; 502030245, final concentration 10 nM) were diluted in William's E (without L-glutamine) and added to organoids. CLICK-iT™ EdU (EdU final concentration […] incubated together with the vehicle, NTF3, BDNF or HGF). After 6 hours, organoids were fixed with 4% paraformaldehyde and permeabilized with 0.5% Triton-X 100. Further processing was performed according to CLICK-ITT EdU manufacturer's instructions. mpPHHs were seeded on collagen coated chamber slides and grown in complete hepatocyte medium (Lonza, Basel, Switzerland). Prior to EdU incorporation assays, mpPHHs were cultured in William's E medium. Vehicle or NTF3, BDNF, HGF (20 ng/ml final concentration each) or Taletrectinib (Fisher Scientific, Waltham, MA; 502030245, final concentration 10 nM) were diluted in William's E (without L-glutamine) and added to mpPHHs. Organoids were imaged in PBS in chamber slides, mpHHs were mounted with fluoromount. Five to fifteen images of random high-power fields were obtained per experiment per treatment and EdU+/Hoechst 33342+ nuclei versus all Hoechst 33342+ nuclei quantified."}},
  "data": [
    {"molecule": "NC(=O)CC[C@H](N)C(=O)O", "note": "[glutamine]", "values": [
      {"measurement": "phosphorylated S6rp (Ser240/244)", "setting": "mTORC1; HDOs cultured in glutamine free media, coincubation (FIG. 18G), Torin2 25 nM", "result": "decreased phosphorylated S6rp"}
    ]},
    {"molecule": "O=C(Nc1ccccc1C(=O)NC1CCCCNC1=O)c1cc2ccccc2s1", "note": "(stereo not drawn) [ANA-12, reference compound]", "values": [
      {"measurement": "inhibition of NTF3-induced cell proliferation", "setting": "[1]; ANA-12 10 nM, NTF3 20 ng/ml, serum-free medium (FIG. 12D)", "result": "significantly inhibited"},
      {"measurement": "effect on BDNF-induced proliferation", "setting": "[1]; co-incubation with ANA-12 10 nM (FIG. 16C)", "result": "inhibited"}
    ]},
    {"molecule": "insulin: a known activator of mTORC1", "values": [
      {"measurement": "phosphorylation of P-p70S6 kinase and P-S6 ribosomal protein (S6RP)", "setting": "mTORC1; HDO, serum free and glutamine free William's E medium (FIG. 20A-C)", "result": "significantly increased phosphorylation"}
    ]},
    {"molecule": "CC(=O)NCCc1c[nH]c2ccc(O)cc12", "note": "[NAS, N-Acetyl-5-hydroxytryptamine, reference compound]", "values": [
      {"measurement": "cell proliferation, comparison of NTF3, HGF, BDNF and NAS", "setting": "[1]; BDNF and HGF 20 ng/ml, NAS 500 nM (FIG. 16E)", "result": "induce proliferation to a similar extent"}
    ]},
    {"molecule": "C[C@@H](N)COc1ccc(-c2cnc3ccc(N[C@H](C)c4cccc(F)c4)nn23)cc1", "note": "[taletrectinib, reference compound]", "values": [
      {"measurement": "effect on NTF3-induced increase of EdU+ cells", "setting": "[2]", "result": "decreased"}
    ]}
  ]
}
